According to patent US8389552B2, “(S)-6-(2-(4-(cyclobutylsulfonyl)-1H-imidazol-1-yl)-3-cyclopentylpropanamido)nicotinic acid useful as a glucokinase activator” (Pfizer Inc., priority 2009, dated 2013):

Target: T1, Full-length glucokinase (beta cell isoform) (Homo sapiens, UniProt P35557)
T1 construct: Full-length glucokinase (beta cell isoform) was His-tagged at N-terminus; His tag (N); made in house; host or cells: E. coli BL21(DE3), pBCGK vector
T1 sequence (P35557 1-465): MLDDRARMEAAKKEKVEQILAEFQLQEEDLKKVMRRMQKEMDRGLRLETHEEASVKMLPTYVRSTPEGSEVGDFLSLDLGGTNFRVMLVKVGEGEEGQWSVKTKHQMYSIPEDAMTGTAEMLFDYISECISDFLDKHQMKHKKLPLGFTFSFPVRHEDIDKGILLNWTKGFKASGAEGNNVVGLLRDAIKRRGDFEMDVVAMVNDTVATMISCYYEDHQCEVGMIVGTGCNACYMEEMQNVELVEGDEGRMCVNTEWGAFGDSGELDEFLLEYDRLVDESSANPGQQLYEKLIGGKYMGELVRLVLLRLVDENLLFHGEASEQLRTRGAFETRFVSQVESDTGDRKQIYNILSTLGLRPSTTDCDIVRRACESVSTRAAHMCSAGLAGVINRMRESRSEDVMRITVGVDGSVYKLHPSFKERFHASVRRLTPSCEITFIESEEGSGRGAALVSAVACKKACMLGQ
Assay: Glucokinase activation assay (PK/LDH-coupled, NADH depletion at 340 nm)
Assay type: biochemical
Conditions: 5 mM glucose, single value or range where N>1; for EC50: 2.5 mM ATP, pH 7.1, room temperature, read-out: EC50; for Emax: % max activation = (Va/Vo−1)×100 from fit, pH 7.1, read-out: Maximum Activation (%)
Procedure: Full-length glucokinase (beta cell isoform) was His-tagged at N-terminus and purified by a Ni column followed by size exclusion chromatography. A 320 mL column was packed in house using Superdex75 (Amersham Pharmacia, Carlsbad, Calif.) preparation grade resin. Glucose was obtained from Calbiochem (San Diego, Calif.) and other reagents were purchased from Sigma-Aldrich (St. Louis, Mo.).
All assays were performed in a Corning 384-well plate using Spectramax PLUS spectrophotometer (Molecular Devices, Sunnyvale, Calif.) at room temperature. The final assay volume was 40 ∥L. The buffer conditions used in this assay were as follows: 50 mM HEPES, 5 mM glucose, 2.5 mM ATP, 3.5 mM MgCl2, 0.7 mM NADH, 2 mM dithiothreitol, 1 unit/mL pyruvate kinase/lactate dehydrogenase (PK/LDH), 0.2 mM phosphoenolpyruvate, and 25 mM KCl. The buffer pH was 7.1. The test compound in dimethylsulfoxide solution was added to the buffer and mixed by a plate shaker for 7.5 minutes. The final concentration of dimethylsulfoxide introduced into the assay was 0.25%.
Glucokinase was added to the buffer mixture to initiate the reaction in the presence and absence of compound. The reaction was monitored by absorbance at 340 nm due to the depletion of NADH. The initial reaction velocity was measured by the slope of a linear time course of 0-300 seconds. The percentage of maximum activation was calculated by the following equation: % Maximum Activation=(Va/Vo−1)×100; wherein each of Va and Vo is defined as the initial reaction velocity in the presence and absence of the tested compound, respectively.
The glucokinase activities were measured as a function of compound concentrations.

Row | SMILES | EC50 [µM] | Emax [%]
1 | O=C(O)Cn1ccc(NC(=O)[C@H](CC2CCCC2)n2cnc(C(F)(F)F)n2)n1 [Example 89, (S)-2-(3-(3-cyclopentyl-2-(3-(trifluoromethyl)-1H-1,2,4-triazol-1-yl)propanamido)-1H-pyrazol-1-yl)acetic acid] | 45 | 183
2 | O=C(Nc1nc2cccnc2s1)[C@H](CC1CCOCC1)n1cnc(C(F)(F)F)c1 [Example 77, (S)-3-(tetrahydro-2H-pyran-4-yl)-N-(thiazolo[5,4-b]pyridin-2-yl)-2-(4-(trifluoromethyl)-1H-imidazol-1-yl)propanamide] | 18 | 139
3 | CCn1ccc(NC(=O)[C@H](CC2CCCC2)n2cc(S(=O)(=O)C(C)C)cn2)n1 [Example 18, (S)-3-cyclopentyl-N-(1-ethyl-1H-pyrazol-3-yl)-2-(4-(isopropylsulfonyl)-1H-pyrazol-1-yl)propanamide] | 15.7 | 24
4 | Cc1cnc(NC(=O)[C@H](CC2CCCC2)n2ccc(C(F)(F)F)n2)cn1 [Example 70, (S)-3-cyclopentyl-N-(5-methylpyrazin-2-yl)-2-(3-(trifluoromethyl)-1H-pyrazol-1-yl)propanamide] | 24 | 124
5 | Cc1ccc(NC(=O)[C@H](CC2CCCC2)n2ncc(C(F)(F)F)c2C)nc1 [Example 97, (S)-3-cyclopentyl-2-(5-methyl-4-(trifluoromethyl)-1H-pyrazol-1-yl)-N-(5-methylpyridin-2-yl)propanamide] | 28 | 136
6 | Cn1ccc(NC(=O)[C@H](CC2CCCC2)n2nnc(S(C)(=O)=O)n2)n1 [Example 79, (S)-3-cyclopentyl-N-(1-methyl-1H-pyrazol-3-yl)-2-(5-(methylsulfonyl)-2H-tetrazol-2-yl)propanamide] | 40 | 99
7 | Cc1ccc(NC(=O)[C@H](CC2CCCC2)n2cnc(S(=O)(=O)C(C)C)c2)nc1 [Example 28, (S)-3-cyclopentyl-2-(4-(isopropylsulfonyl)-1H-imidazol-1-yl)-N-(5-methylpyridin-2-yl)propanamide] | > 100 | 
8 | CC(C)S(=O)(=O)c1cn([C@@H](CC2CCCC2)C(=O)Nc2ccn(C)n2)cn1 [Example 29, (S)-3-cyclopentyl-2-(4-(isopropylsulfonyl)-1H-imidazol-1-yl)-N-(1-methyl-1H-pyrazol-3-yl)propanamide] | 17 | 112
9 | CC(C)(C(=O)O)c1ccc(NC(=O)[C@H](CC2CCCC2)n2cnc(C(F)(F)F)c2)nc1 [Example 65, (S)-2-(6-(3-cyclopentyl-2-(4-(trifluoromethyl)-1H-imidazol-1-yl)propanamido)pyridin-3-yl)-2-methylpropanoic acid] | 17 | 84
10 | Cc1cnc(NC(=O)[C@H](CC2CCCC2)n2cnc(S(C)(=O)=O)c2)cn1 [Example 34, (S)-3-cyclopentyl-N-(5-methylpyrazin-2-yl)-2-(4-(methylsulfonyl)-1H-imidazol-1-yl)propanamide] | 62 | 236
11 | O=C(Nc1cnccn1)[C@H](CC1CCCC1)n1cnc(C(F)(F)F)n1 [Example 84, (S)-3-cyclopentyl-N-(pyrazin-2-yl)-2-(3-(trifluoromethyl)-1H-1,2,4-triazol-1-yl)propanamide] | 10 | 171
12 | Cc1ccc(NC(=O)[C@H](CC2CCCC2)n2cc(C(=O)N(C)C)cn2)nc1 [Example 72, (S)-1-(3-cyclopentyl-1-(5-methylpyridin-2-ylamino)-1-oxopropan-2-yl)-N,N-dimethyl-1H-pyrazole-4-carboxamide] | > 100 | 
13 | CCn1ccc(NC(=O)[C@H](CC2CCCC2)n2cc(S(C)(=O)=O)cn2)n1 [Example 11, (S)-3-cyclopentyl-N-(1-ethyl-1H-pyrazol-3-yl)-2-(4-(methylsulfonyl)-1H-pyrazol-1-yl)propanamide] | 32 | 110

These reach a lower EC50. Values come first.

Row | EC50 [µM] | Emax [%] | SMILES
14 | 0.2 to 0.3 | 120 to 138 | O=C(O)c1ccc(NC(=O)[C@H](CC2CCCCC2)n2cnc(C(F)(F)F)c2)nc1 [Example 90, (S)-6-(3-cyclohexyl-2-(4-(trifluoromethyl)-1H-imidazol-1-yl)propanamido)nicotinic acid]
15 | 8 | 128 | Cc1cn([C@@H](CC2CCCC2)C(=O)Nc2ccc(C(=O)O)cn2)nc1C(F)(F)F [Example 95, (S)-6-(3-cyclopentyl-2-(4-methyl-3-(trifluoromethyl)-1H-pyrazol-1-yl)propanamido)nicotinic acid]
16 | 0.8 to 1 | 125 to 147 | Cc1ccc(NC(=O)[C@H](CC2CCCC2)n2cnc(C(F)(F)F)n2)nc1 [Example 85, (S)-3-cyclopentyl-N-(5-methylpyridin-2-yl)-2-(3-(trifluoromethyl)-1H-1,2,4-triazol-1-yl)propanamide]
17 | 2.9 | 65 | CCS(=O)(=O)c1cnn([C@@H](CC2CCCC2)C(=O)Nc2ccc(C)cn2)c1 [Example 21, (S)-3-cyclopentyl-2-(4-(ethylsulfonyl)-1H-pyrazol-1-yl)-N-(5-methylpyridin-2-yl)propanamide]
18 | 0.7 to 1.9 | 15 to 23 | CC(C)S(=O)(=O)c1cnn([C@@H](CC2CCCC2)C(=O)Nc2ccc(C(F)(F)F)cn2)c1 [Example 3, (S)-3-cyclopentyl-2-(4-(isopropylsulfonyl)-1H-pyrazol-1-yl)-N-(5-(trifluoromethyl)pyridin-2-yl)propanamide]
19 | 4 to 5.4 | 92 to 95 | Cc1ccc(NC(=O)[C@H](CC2CCCC2)n2cc(C)c(C(F)(F)F)n2)nc1 [Example 93, (S)-3-cyclopentyl-2-(4-methyl-3-(trifluoromethyl)-1H-pyrazol-1-yl)-N-(5-methylpyridin-2-yl)propanamide]
20 | 5.5 | 90 | Cc1ccc(NC(=O)[C@H](CC2CCCC2)n2ccc(C(F)(F)F)n2)nc1 [Example 69, (S)-3-cyclopentyl-N-(5-methylpyridin-2-yl)-2-(3-(trifluoromethyl)-1H-pyrazol-1-yl)propanamide]
